Measurements reported in patent publication US7169604B1, “Method for PR-39 peptide mediated selective inhibition of IκBα degradation” (Beth Israel Deaconess Medical Center, priority 1998, dated 2007).
Ends that are not written are not given here.

How the values were obtained:
20S proteasome = biological target: T1, 20S proteasome (Homo sapiens, UniProt P25788); assay: Co-immunoprecipitation of PR-39 and 20S subunits in ECV cells; assay type: binding; details: ECV304 cells transfected with PR-39 constructs; anti-PR-39 antibody
T1 construct: endogenous in cells; host or cells: ECV304 cells stably expressing porcine PR-39 constructs
Source text: In order to confirm that PR-39 and the a7 subunit interact in cells, a polyclonal anti-PR-39 antibody was used to immunoprecipitate PR-39 protein from EVC304 cells transfected with cDNA constructs corresponding either to the full length (EVC-PR-39) or exon 4 (39 amino acid C-terminal domain) (ECV-E4) of the porcine PR-39 gene.
Full-length porcine cDNA (containing the leader sequence) and a cDNA construct corresponding to the 4th exon of porcine PR-39 gene were cloned into eukaryotic expression vector pGRE5-2 (USB) and used to stably transfect an immortalized human endothelial cell line (ECV304, ATCC). For co-immunoprecipitation, wild type ECV, full-length PR-39 (ECV-PR-39) and exon 4 PR-39 (ECV-E4) transfected cells were cultured in 10% FBS-M199. Cells were lysed with the RIPA buffer, and equal amounts of total protein were pre-cleared with non-immune rabbit serum and protein G plus/protein A-agarose beads (Calbiochem). The cleared samples were incubated at 4° C. overnight with 20 μl of polyclonal anti-PR-39 antibody and 40 μl of protein G plus/protein A-agarose beads or with the beads alone. […]

NFκB [1] = assay: NFκB electromobility shift assay in mouse pancreas, caerulein-induced pancreatitis; assay type: in vivo; details: 10 mg/kg i.v. 1 hour before caerulein; 30 min later
IκBα = assay: TNF-α induced degradation of IκBα in U937 cells; assay type: cell-based, human; details: 45 min pretreatment with 100 nM, TNF-α 1 ng/ml, 10 min
Protocol: Tumor necrosis factor (TNF)-α is known to induce rapid degradation of IκBα by the Ub-proteasome pathway.
As shown by FIG. 1E, PR-39 prevents TNF-a induced degradation of IκBα. U937 cells were cultured in 10% FBs-RPMI medium in the absence (−) or presence of TNF-a (1 ng/ml). 10 min following TNF-α addition, the cells were washed and IκBα protein levels assessed by Western blotting.
Note that a […] 45 min of pretreatment with 100 nM of PR-39 or 10 μM of MG132 or lactacystin (LC) prior to addition of blocked TNF-α, blocked cytokine-induced degradation of IκBα expression.

NFκB [2] = assay: NFκB-dependent luciferase reporter (pNFκB-Luc) in ECV304 cells; assay type: cell-based, human; details: 45 min pretreatment with 10 nM, TNF-α 1 ng/ml
Protocol: The results are presented by FIG. 2A.
The effect of PR-39-mediated inhibition of IκBα degradation on NFκB-dependent transcription was tested in ECV304 cells transiently transfected with pNFκB-Luc reporter vector.

RRRPRPPYLPRPRPPPFFPPRLPPRIPPGFPPRFPPRFP [PR-39]
binding to 20S proteasome (co-immunoprecipitation of α7 and α2 subunits) (20S proteasome): can bind to the 20S proteasome particle via an interaction with the a7 subunit | NFκB gel shift in mouse pancreas (NFκB [1]): almost complete disappearance of NFκB gel shift | TNF-α caused decline of the level of IκBα (IκBα): markedly reduced | TNF-α induced increase in luciferase activity (NFκB [2]): completely blocked
